Tests used:
pigweed = experiment: Test B pre/postemergence pigweed; type: in vivo, Amaranthus retroflexus
In short: (§1)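 Test chemicals in a non-phytotoxic solvent mixture with surfactant were sprayed preemergence onto planted seeds and postemergence onto plants 2 to 18 cm tall (1- to 4-leaf stage). After twelve to sixteen days in a greenhouse, injury was visually rated against untreated controls from 0 (no effect) to 10 (complete control).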

bamyardgrass = experiment: Test B flood test barnyardgrass; type: in vivo, Echinochloa crus-galli
In short: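 Plants were grown to the 2-leaf stage before treatment with test chemical, then held in a greenhouse for twelve to sixteen days. Injury was visually rated against untreated controls on a 0–10 scale, where 0 is no effect and 10 is complete control.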

cocklebur = experiment: Test B pre/postemergence cocklebur; type: in vivo, Xanthium strumarium
In short: as §1

sugar beet = experiment: Test B pre/postemergence sugar beet; type: in vivo, Beta vulgaris
In short: as §1

[1] = Preemergence, Rate 62 g/ha, scale of 0 to 10 where 0 is no effect and 10 is complete control
[2] = Preemergence, Rate 250 g/ha, scale of 0 to 10 where 0 is no effect and 10 is complete control
[3] = Preemergence, Rate 500 g/ha, scale of 0 to 10 where 0 is no effect and 10 is complete control
[4] = Rate 62 g/ha, Postemergence, scale 0 to 10 (0 no effect, 10 complete control)
[5] = Rate 125 g/ha, Postemergence, scale of 0 to 10 where 0 is no effect and 10 is complete control
[6] = Rate 250 g/ha, Postemergence, scale of 0 to 10 where 0 is no effect and 10 is complete control
[7] = Rate 62 g/ha, headed Pre-emergence (flood test species), scale 0 to 10 (0 no effect, 10 complete control)
[8] = Rate 125 g/ha, Pre-emergence, flood test species, scale 0 to 10 where 0 is no effect and 10 is complete control
[9] = Rate 250 g/ha, Pre-emergence, flood-test species, scale 0 to 10, 0 is no effect, 10 is complete control
[10] = Rate 500 g/ha, Pre-emergence, flood test species, scale 0 to 10 (0 no effect, 10 complete control)
[11] = Rate 500 g/ha, Postemergence, scale 0 to 10, 0 no effect, 10 complete control
[12] = Postemergence, Rate 125 g/ha, scale 0 to 10, 0 is no effect, 10 is complete control
[13] = Postemergence, Rate 250 g/ha, scale 0 to 10, 0 is no effect, 10 is complete control
[14] = Postemergence, Rate 1000 g/ha, scale 0 to 10 (0 no effect, 10 complete control)
[15] = Rate 1000 g/ha, Preemergence, scale 0 to 10 (0 no effect, 10 complete control)
[16] = Preemergence, Rate 62 g/ha, scale 0 to 10 (0 no effect, 10 complete control)
[17] = Rate 62 g/ha, Postemergence, scale of 0 to 10 where 0 is no effect and 10 is complete control

| SMILES | Redroot pigweed plant response rating (pigweed; [1]) | Redroot pigweed plant response rating (0 to 10 scale) (pigweed; Preemergence, Rate 125 g/ha) | Redroot pigweed plant response rating (pigweed; [2]) | Redroot pigweed plant response rating (pigweed; [3]) | Redroot pigweed plant response rating (pigweed; [4]) | Plant response rating, Redroot pigweed (pigweed; [6]) | Barnyardgrass plant response rating (bamyardgrass; [7]) | Barnyardgrass plant response rating (bamyardgrass; [8]) | Barnyardgrass plant response rating (bamyardgrass; [9]) | Barnyardgrass plant response rating (bamyardgrass; [10]) | Cocklebur plant response rating (0 to 10 scale) (cocklebur; Preemergence, Rate 125 g/ha) | Cocklebur plant response rating (cocklebur; [2]) | Cocklebur plant response rating (cocklebur; [3]) | Cocklebur plant response rating (cocklebur; [4]) | Plant response rating, Cocklebur (cocklebur; [6]) | Sugarbeets plant response rating (sugar beet; [1]) | Sugarbeets plant response rating (0 to 10 scale) (sugar beet; Preemergence, Rate 125 g/ha) | Sugarbeets plant response rating (sugar beet; [2]) | Sugarbeets plant response rating (sugar beet; [3]) | Sugarbeets plant response rating (sugar beet; [4]) | further results |
| --- | --- | --- | --- | --- | --- | --- | --- | --- | --- | --- | --- | --- | --- | --- | --- | --- | --- | --- | --- | --- | --- |
| Cc1cccc(C(C)(C)C)c1-n1c(=O)on(C(=O)N(c2ccccc2)C(C)C)c1=O [Compound 303] | 0 | 0 | 0 | 0 | 0 | 2 | 0 | 0 | 0 | 0 | 0 | 0 | 0 | 0 | 0 | 0 | 0 | 0 | 0 | 0 | Redroot pigweed plant response rating (pigweed; [5]): 0; Cocklebur plant response rating (cocklebur; [1]): 0; Cocklebur plant response rating (cocklebur; [5]): 0; Cocklebur plant response rating (cocklebur; [11]): 0; Sugarbeets plant response rating (sugar beet; [5]): 0; Plant response rating, Sugarbeets (sugar beet; [6]): 0 |
| CCc1cccc(CC)c1-n1c(=O)on(C(=O)N(c2ccc(F)cc2)C(C)C)c1=O [Compound 304] | 0 | 0 | 0 | 0 | 3 | 5 | 0 | 0 | 0 | 4 | 0 | 0 | 0 | 0 | 0 | 0 | 1 | 6 | 6 | 0 | Redroot pigweed plant response rating (pigweed; [5]): 3; Cocklebur plant response rating (cocklebur; [5]): 0; Cocklebur plant response rating (cocklebur; [11]): 0; Sugarbeets plant response rating (sugar beet; [5]): 0; Plant response rating, Sugarbeets (sugar beet; [6]): 0 |
| CC(C)N(C(=O)n1oc(=O)n(Cc2ccccc2-c2ccccc2)c1=O)c1ccc(F)cc1 [Compound 313] | 0 | 0 | 0 | 0 | 0 | 2 | 0 | 0 | 0 | 0 | 0 | 0 | 0 | 0 | 0 | 0 | 0 | 0 | 0 | 0 | Redroot pigweed plant response rating (pigweed; [5]): 0; Cocklebur plant response rating (cocklebur; [1]): 0; Cocklebur plant response rating (cocklebur; [5]): 0; Cocklebur plant response rating (cocklebur; [11]): 0; Sugarbeets plant response rating (sugar beet; [5]): 0; Plant response rating, Sugarbeets (sugar beet; [6]): 0 |
| CC(C)N(C(=O)n1oc(=O)n(Cc2nnsc2Cl)c1=O)c1ccc(F)cc1F [Compound 320] | 0 | 0 | 0 | 0 | 3 | 6 | 0 | 0 | 0 | 0 | 0 | – | 0 | 0 | 0 | 0 | 0 | 0 | 0 | 0 | Redroot pigweed plant response rating (pigweed; [5]): 6; Cocklebur plant response rating (cocklebur; [1]): 0; Cocklebur plant response rating (cocklebur; [5]): 0; Cocklebur plant response rating (cocklebur; [11]): 0; Sugarbeets plant response rating (sugar beet; [5]): 2; Plant response rating, Sugarbeets (sugar beet; [6]): 2 |
| CC(C)N(C(=O)n1oc(=O)n(C2CC3CCC2C3)c1=O)c1ccc(F)cc1 (stereo not drawn) [Compound 327] | 0 | 0 | 1 | 3 | 4 | 6 | 0 | 0 | 3 | 0 | 0 | 0 | 0 | 0 | 0 | 0 | 0 | 0 | 3 | 0 | Plant response rating, Redroot pigweed (pigweed; [12]): 5; Plant response rating, Redroot pigweed (pigweed; [11]): 7; Plant response rating, Cocklebur (cocklebur; [12]): 0; Cocklebur plant response rating (cocklebur; [1]): 0; Plant response rating, Cocklebur (cocklebur; [11]): 0; Plant response rating, Sugarbeets (sugar beet; [12]): 0; Plant response rating, Sugarbeets (sugar beet; [6]): 0; Plant response rating, Sugarbeets (sugar beet; [11]): 0 |
| CCOC(=O)C(C)N(C(=O)n1oc(=O)n(C)c1=O)c1ccc(F)cc1 (stereo not drawn) [Compound 365] | – | 0 | 0 | 0 | – | – | – | 0 | 0 | 0 | 0 | 0 | 0 | – | – | – | 0 | 0 | 0 | – | Plant response rating, Redroot pigweed (pigweed; [12]): 0; Plant response rating, Redroot pigweed (pigweed; [13]): 0; Redroot pigweed plant response rating (pigweed; [14]): 0; Plant response rating, Redroot pigweed (pigweed; [11]): 0; Plant response rating, Redroot pigweed (pigweed; [15]): 0; Barnyardgrass plant response rating (bamyardgrass; Pre-emergence, Rate 1000 g/ha, scale 0 to 10 (0 no effect, 10 complete control)): 0; Plant response rating, Cocklebur (cocklebur; [12]): 0; Plant response rating, Cocklebur (cocklebur; [13]): 0; Cocklebur plant response rating (cocklebur; [14]): 0; Plant response rating, Cocklebur (cocklebur; [11]): 0; Plant response rating, Cocklebur (cocklebur; [15]): 0; Plant response rating, Sugarbeets (sugar beet; [12]): 0; Plant response rating, Sugarbeets (sugar beet; [13]): 0; Sugarbeets plant response rating (sugar beet; [14]): 0; Plant response rating, Sugarbeets (sugar beet; [11]): 0; Plant response rating, Sugarbeets (sugar beet; [15]): 0 |
| CC(C)N(C(=O)n1oc(=O)n(C)c1=O)c1ccc(F)cc1F [Compound 368] | – | 10 | 10 | 10 | – | – | – | 0 | 0 | 7 | 0 | 0 | 0 | – | – | – | 8 | 10 | 10 | – | Plant response rating, Redroot pigweed (pigweed; [12]): 3; Plant response rating, Redroot pigweed (pigweed; [13]): 4; Plant response rating, Redroot pigweed (pigweed; [16]): 10; Redroot pigweed plant response rating (pigweed; [17]): 2; Plant response rating, Redroot pigweed (pigweed; [11]): 7; Plant response rating, Barnyardgrass (0 to 10 scale, 0 is no effect, 10 is complete control) (bamyardgrass; Rate 62 g/ha, flood test species, Pre-emergence, visual evaluation after twelve to sixteen days): 0; Plant response rating, Cocklebur (cocklebur; [12]): 2; Plant response rating, Cocklebur (cocklebur; [13]): 3; Plant response rating, Cocklebur (cocklebur; [16]): 0; Cocklebur plant response rating (cocklebur; [17]): 0; Plant response rating, Cocklebur (cocklebur; [11]): 5; Plant response rating, Sugarbeets (sugar beet; [12]): 0; Plant response rating, Sugarbeets (sugar beet; [13]): 2; Plant response rating, Sugarbeets (sugar beet; [16]): 6; Sugarbeets plant response rating (sugar beet; [17]): 0; Plant response rating, Sugarbeets (sugar beet; [11]): 3 |
